Structures are written as SMILES. Where two headings read alike, the source gives them in different places.

The subject of series [1] is Propionibacterium acnes (strain ATCC 6919). The series can be described thus: Inhibition of Propionibacterium acnes growth. It counts as cell-based. As to the method: The assay for the inhibition of growth of Propionibacterium acnes bacteria is described elsewhere (Nakatsuji et al., J Invest Dermatol, 2009, 129: 2480-2488). In brief, the strain ATCC 6919 of P. acnes (American Type Culture Collection, Manassas, Va.) was cultured on Brucella agar (R01254, Remel, Lenexa, Kans.) supplemented with 5% (v/v) defibrinated sheep blood, vitamin K (5 mg/ml, Remel, Lenexa, Kans.), and hemin (50 mg/ml, Remel, Lenexa, Kans.), under an anaerobic condition using Gas-Pak (BD, Sparks, Md.) at 37° C. A single colony was inoculated in Reinforced Clostridium Medium (Oxford, Hampshire, England) and cultured at 37° C. under the anaerobic condition. Each of the inventive complexes—AFC-Sr, AFC-Ag and AFC-Zn as well as AFC were dissolved in 100% (v/v) DMSO. Samples of each inventive complex, AFC and a solution of benzoyl peroxide (“BPO”) were then each incubated with an inoculum of P. acnes at a concentration of 1×10^6 CFU per mL in Reinforced Clostridium Medium in a 96-well microplate (100 μL per well) under anaerobic conditions for 72 hours. Samples of each were tested at final concentrations per well of 0.25 μg/mL, 0.5 μg/mL, 1.0 μg/mL, 1.95 μg/mL, 3.9 μg/mL, 7.8 μg/mL, 15.625 μg/mL, 31.25 μg/mL, 62.5 μg/mL, 125 μg/mL, 250μg/mL, and 500 μg/mL. A control well received only 5% (v /v) of DMSO in place of a sample of an inventive complex. After 72 hours incubation under anaerobic conditions, the P. acnes cultures in the 96-well microplate were mixed well and then absorbance readings at 600 nm were taken to determine bacterial growth. […] Growth curves of P. acnes determined for BPO, AFC, AFC-Sr, AFC-Ag and AFC-Zn are depicted in FIG. 3.

For series [2] the following is noted: complex and its solutions; compared with ordinary silver salts of carboxylic acids.
Series [3] concerns TPA-treated mouse ears (edema, ear thickness). Description: TPA mouse ear model of inflammation - edema inhibition. The class given is in vivo. The procedure:
In brief, mice were sedated and their ears were treated with 1.2 μg/20 uL TPA (i.e., tetradecanoylphorbol-13-acetate). After 5 minutes, we dosed these TPA-treated ears with a single 8 μg/20 μL dose, a 2 μg/20 μL dose, or both doses, of provided complexes. After 24 hours, the mice were sacrificed and edema was measured by taking micrometer readings of each ear. […] These values were corrected for the thickness of normal, non TPA-treated mouse ears of littermate controls.

Series [4] has as its system TPA-treated mouse ears (erythema, Δa* redness). The series can be described thus: TPA mouse ear model of inflammation - erythema inhibition. The settings on record: topical, 24 hours. It counts as in vivo. As to the method: The protocol for measuring erythema inhibition by provided complexes was developed in-house by utilizing the CR-400 chroma meter from Konica Minolta (2). This instrument was used to measure the Δa*redness value from 6 mm biopsy punches taken 24 hours post TPA/compound treatment as described in the edema inhibition section above. […] These values were corrected for the Δa* value of non TPA-treated mouse ears of littermate controls.

Series [5] relates to MPO (myeloperoxidase), neutrophil marker. The series can be described thus: TPA mouse ear model of inflammation - MPO inhibition (dermal neutrophil infiltration). It counts as in vivo. The procedure:
Briefly, we homogenized 6mm biopsy punches taken from both compound-treated ears as well as TPA-treated and non-treated control groups. We quantitated the levels of MPO by a colorimetric reaction that was measured spectrophotometrically. The percent inhibition of neutrophil infiltration by each complex was determined by comparing the average MPO levels in the presence and absence of these compounds. The calculation for percent inhibition of MPO was determined similar to that as described for calculating the percent edema inhibition, see the Edema Inhibition protocol, supra.

In the next series the test system is neutrophils. The series can be described thus: Inhibition of oxidative burst from neutrophils (fMLP-induced superoxide release). It counts as cell-based. The settings on record: reduction of superoxide formation, fMLP 0.2 μM, 0 to 100 μM compound; read-out: ED50 Respiratory Burst. As to the method: During inflammation, neutrophils produce and release superoxide ions, otherwise known as oxidative burst response, causing cytotoxicity. […] The superoxide release assay is based on published protocols (Goldstein et al. (1975). J. Clin. Invest. 56(5): 1155-63). Briefly, cells were pre-incubated for 10 min at 37° C. with a mixture of cytochrome c (75 μM final concentration), cytochalasin B (5 μg/ml) with or without superoxide dismutase (SOD) (10 μg/ml) and with or without AFC, AFC-Calcium complex, and AFC-Strontium complex (ranging from 0 to 100 μM). To initiate O2^− release, fMLP (0.2 μM) was added the cells are incubated for 10 min at 37° C. Samples were then placed on ice for 5 min and subsequently centrifuged at 3,000 rpm at 4° C. The supernatant was then analyzed by spectrophotometric measurement at 550 and 556.5 nm. The ED50 values for the reduction of superoxide formation, obtained with AFC, AFC-Calcium complex, and AFC-Strontium complex are depicted in Table 2.

In series [6] the test system is MPO activity (neutrophil infiltration) in P. acnes-injected ear. Description: P. acnes-induced mouse ear model of inflammation - MPO endpoint. The class given is in vivo. To be noted: dose of 0.4 mg/20 μL. As to the method:
The methods for a model of P. acnes-inflammation are described elsewhere (Nakatsuji et al., J Invest Dermatol, 2008, 128: 2451-2457).
The protocol for inducing inflammation using P. acnes bacterial challenge on the mouse ear was slightly modified from the method described previously (Natatsuji et al., 2008). Briefly, Swiss Webster (ICR, 6-8 weeks old) mouse ears were injected with living P. acnes culture intradermally. An amount of 20 μl aliquots of living P. acnes (ATCC 6919, 3×10^6 CFU) suspended in PBS was intradermally injected in the central portion of the ear. As a control, 20 μl of PBS was injected into control animals.
To assay for inhibition of dermal neutrophil infiltration by AFC complexes, a standard method was used (see Bradley et al., J Invest Dermatol, 1982,78: 206-209; Young et al., J Invest Dermatol, 1983, 80: 48-52; De Young et al, Agents Actions, 1989, 26: 335-41; and Rao et al., Inflammation, 1993, 17: 723-41). Briefly, 6mm biopsy punches taken from both compound-treated ears as well as non-treated control ears were homogenized in 400 μl of 0.5% hexadecyltrimethylammonium bromide in 50 mM potassium phosphate buffer (pH 6.0) using the Fast Prep 24 (MP Biomedicals, Solon, Ohio). Supernatants were assayed for MPO activity using a model EL 340 96-well plate reader (BioTek Instruments, Winooski, Vt.). The percent inhibition of neutrophil infiltration by each AFC complex was determined by comparing the average MPO levels in the presence and absence of these compounds. The percent inhibition of MPO was determined by taking the average MPO activity of compound-treated ears and dividing it by the average MPO activity of 12 ears that only received the P. acnes challenge and subtracting that value from 100%. These values were corrected for the MPO activity of normal, non P. acnes-treated mouse ears of littermate controls. Summary of MPO activity ranges determined from an MPO activity assay for dexamethasone (administered at a dose of 1.6 mg/20 μL), clobetasol (administered at a dose of 0.1 mg/20 μL), salicylic acid (administered at a dose of 0.4 mg/20 μL), AFC (administered at a dose of 0.4 mg/20 μL), AFC-Strontium complex (administered at a dose of 0.4 mg/20 μL) and SFC-disodium are presented in Table 4. “+” indicates a range of 0-20%, “++” indicates a range of 20-40%, and “+++” indicates >40% inhibition.

Series [7] deals with TPA-treated mouse ears (edema, ear thickness). Description: TPA mouse ear model of inflammation - edema inhibition. It counts as in vivo. The settings on record: topical, 24 hours.

On to `CC(=O)N[C@@H](CSC/C=C(\C)CC/C=C(\C)CCC=C(C)C)C(=O)[O-].[Ag+]` [AFC-Silver complex, Silver (R)-2-acetamido-3-((2E,6E)-3,7,11-trimethyldodeca-2,6,10-trienylthio)propanoate], for which, in series [1], the “IC50 (inhibition of P. acnes growth)” value was 16.9 µg/mL. Besides, in series [2], the “light and air stability” value was “enhanced light and air stability”.

Consider `CC(=O)N[C@@H](CSC/C=C(\C)CC/C=C(\C)CCC=C(C)C)C(=O)O` [AFC-strontium complex, Strontium (R)-2-acetamido-3-((2E,6E)-3,7,11-trimethyldodeca-2,6,10-trienylthio)propanoate], for which the “ED50 for edema inhibition” value in series [3] (TPA-treated mouse ear, topical) turned out to be 21700 µM. In addition, the “decrease of edema compared with another complex or AFC alone” value in series [3] (mouse ear inflammation assay) is “more effective at decreasing edema than the calcium complex”. The “% Erythema Inhibition in the Mouse Ear Inflammation Assay (4% concentration)” value in series [4] is “+++ (“+++” indicates >40% inhibition of erythema)”. Besides, the “ED50 in the MPO assay” value in series [5] (TPA-treated mouse ear, several concentrations, inhibitory activity curves) came to 315 μg/ear. Also, the “ED50 value for inhibiting neutrophil infiltration” value in series [5] (TPA-treated mouse ear, topical) turned out to be 5020 µM. Further, the “% MPO Inhibition in the Mouse Ear Inflammation Assay (4% concentration)” value in series [5] (TPA-treated mouse ear, topical, 4% concentration, 24 hours) was “+++ (“+++” indicates >80% inhibition of MPO)”. Moreover, the “MPO inhibition compared with another complex or AFC alone” value in series [5] (mouse ear inflammation assay) was “improved MPO inhibition than the calcium complex”. The “fold lower ED50 value for inhibiting neutrophil infiltration than the AFC oil” value in series [5] (versus AFC oil) is listed as around 8 fold. The EC50 in the series on neutrophils was found to be 35.6 µM. In addition, the “IC50 (inhibition of P. acnes growth)” value in series [1] (72 hours, anaerobic, absorbance 600 nm, 1×10^6 CFU per mL) stood at 12.6 µg/mL. The “MPO % Inhibition” value in series [6] was “+++ (“+++” indicates >40% inhibition)”. Further, the “% Edema Inhibition in the Mouse Ear Inflammation Assay (4% concentration)” value in series [7] is reported as “+++ (“+++” indicates >50% inhibition of edema)”.

For the origin of these results see patent US20100247461A1, “ANTI-INFLAMMATORY COMPLEXES” (Signum Biosciences, Inc., priority 2009, published 2010).
